Data as given in patent publication US11040981B2, “Pyrrolotriazine compounds and methods of inhibiting TAM kinases” (Syros Pharmaceuticals, Inc., priority 2017, dated 2021).

Key:
MERTK = molecular target: T1, MERTK (Homo sapiens, UniProt Q12866); assay: TR-FRET kinase activity assay, MERTK; type: biochemical; details: for IC50: TR-FRET activity assay, ATP at Km, 60 minutes, read-out: Mer IC50
T1 sequence (Q12866 21-999): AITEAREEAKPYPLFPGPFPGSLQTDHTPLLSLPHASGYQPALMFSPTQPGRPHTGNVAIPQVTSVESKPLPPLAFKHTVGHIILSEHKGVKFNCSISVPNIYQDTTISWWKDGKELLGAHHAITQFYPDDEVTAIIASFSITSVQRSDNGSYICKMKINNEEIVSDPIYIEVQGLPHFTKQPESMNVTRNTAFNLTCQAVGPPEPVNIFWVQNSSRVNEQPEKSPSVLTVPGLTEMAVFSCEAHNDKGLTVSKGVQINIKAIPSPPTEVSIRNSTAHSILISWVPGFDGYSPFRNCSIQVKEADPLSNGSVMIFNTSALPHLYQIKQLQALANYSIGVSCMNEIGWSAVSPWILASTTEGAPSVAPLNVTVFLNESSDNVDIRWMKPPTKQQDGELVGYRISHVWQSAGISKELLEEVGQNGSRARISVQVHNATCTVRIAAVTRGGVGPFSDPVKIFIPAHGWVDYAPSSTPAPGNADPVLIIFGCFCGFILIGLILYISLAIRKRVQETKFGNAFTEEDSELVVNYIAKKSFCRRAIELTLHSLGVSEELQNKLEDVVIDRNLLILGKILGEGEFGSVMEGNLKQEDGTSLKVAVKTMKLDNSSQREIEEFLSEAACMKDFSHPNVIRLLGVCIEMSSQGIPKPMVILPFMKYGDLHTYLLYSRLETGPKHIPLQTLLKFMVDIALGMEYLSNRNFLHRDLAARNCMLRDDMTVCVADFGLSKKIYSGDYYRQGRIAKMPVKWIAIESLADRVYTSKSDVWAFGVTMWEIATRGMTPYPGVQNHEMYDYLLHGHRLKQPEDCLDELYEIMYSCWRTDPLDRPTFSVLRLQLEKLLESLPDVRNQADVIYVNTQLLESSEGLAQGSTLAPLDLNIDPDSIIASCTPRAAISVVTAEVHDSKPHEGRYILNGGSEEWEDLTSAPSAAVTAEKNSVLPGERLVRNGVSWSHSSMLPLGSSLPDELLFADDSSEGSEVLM
In short: (§1)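 Enzyme, fluorescent peptide substrate and compound were mixed, and the reaction was started with ATP at each kinase's Km, in 50 mM HEPES pH 7.5, 10 mM MgCl2, 1 mM EGTA, 0.01% Brij 35, 1 mM DTT at RT. After 60 minutes EDTA quench, Eu-labelled phospho-specific antibody was added for 30 minutes, and IC50 was derived from TR-FRET signal loss.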

FLT3 = molecular target: T2, FLT3 (Homo sapiens, UniProt P36888); assay: TR-FRET kinase activity assay, FLT3; type: biochemical; details: ATP at Km, 60 minutes
T2 sequence (P36888 27-993): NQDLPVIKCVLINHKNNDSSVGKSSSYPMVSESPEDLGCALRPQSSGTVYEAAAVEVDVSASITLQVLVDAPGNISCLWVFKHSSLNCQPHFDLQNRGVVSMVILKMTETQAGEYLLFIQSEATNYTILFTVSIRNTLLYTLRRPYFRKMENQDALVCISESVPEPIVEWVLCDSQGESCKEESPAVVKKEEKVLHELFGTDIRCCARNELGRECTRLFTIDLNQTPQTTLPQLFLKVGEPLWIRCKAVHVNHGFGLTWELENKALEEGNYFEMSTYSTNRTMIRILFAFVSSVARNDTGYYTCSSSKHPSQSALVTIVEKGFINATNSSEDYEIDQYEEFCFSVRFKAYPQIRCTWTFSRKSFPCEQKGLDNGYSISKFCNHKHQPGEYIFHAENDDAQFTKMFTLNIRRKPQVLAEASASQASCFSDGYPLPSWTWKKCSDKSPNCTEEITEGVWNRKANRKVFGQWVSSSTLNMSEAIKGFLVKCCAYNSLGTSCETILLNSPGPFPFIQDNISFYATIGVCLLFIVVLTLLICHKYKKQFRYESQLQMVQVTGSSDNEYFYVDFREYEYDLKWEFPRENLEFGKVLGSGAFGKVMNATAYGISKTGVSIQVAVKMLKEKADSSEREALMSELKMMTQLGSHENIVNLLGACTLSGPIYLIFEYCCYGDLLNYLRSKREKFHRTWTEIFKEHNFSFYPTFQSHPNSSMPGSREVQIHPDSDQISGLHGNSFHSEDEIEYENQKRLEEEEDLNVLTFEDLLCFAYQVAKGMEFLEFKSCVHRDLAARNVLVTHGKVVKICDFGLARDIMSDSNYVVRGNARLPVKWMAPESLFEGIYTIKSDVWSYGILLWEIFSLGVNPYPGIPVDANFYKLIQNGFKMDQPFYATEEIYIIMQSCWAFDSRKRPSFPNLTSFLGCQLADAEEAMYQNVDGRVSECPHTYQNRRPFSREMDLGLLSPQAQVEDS
In short: as §1

[1] = ratio calculated as FLT3 IC50/Mer IC50
[2] = ratio of Mer to FLT3: FLT3 IC50/Mer IC50

IC50 (MERTK) [nM]	FLT3/Mer ratio (FLT3 IC50/Mer IC50) (MERTK; [1])	IC50 (FLT3) [nM]	FLT3/Mer ratio (FLT3 IC50/Mer IC50) (MERTK; [2])	Compound
≤ 100	+++ (“+++” represents a ratio of >100)	100 to 1000	–	COC[C@H](C)Nc1ncc2c(-c3ccnc(N4CCOC(C(C)(C)O)C4)c3)cc([C@H]3CC[C@H](O)CC3)n2n1 (stereo partly drawn) [Compound 534]
≤ 100	+++ (“+++” represents a ratio of >100)	100 to 1000	–	COC[C@H](C)Nc1ncc2c(-c3ccc(CN4CCN(C)CC4)nc3)cc([C@H]3CC[C@H](O)CC3)n2n1 [Compound 565]
≤ 100	+++ (“+++” represents a ratio of >100)	100 to 1000	–	COC[C@H](C)Nc1ncc2c(-c3ccnc(N4CCO[C@H](C(C)(C)O)C4)c3)cc([C@H]3CC[C@H](O)CC3)n2n1 [Compound 558]
≤ 100	+++ (“+++” represents a ratio of >100)	100 to 1000	–	COCC(C)Nc1ncc2c(-c3ccc4ncoc4c3)cc(C3CCC(O)CC3)n2n1 (stereo not drawn) [Compound 552]
≤ 100	+++ (“+++” represents a ratio of >100)	≤ 100	–	C[C@@H](CC(F)(F)F)Nc1ncc2c(-c3ccnc([S@@](C)(=N)=O)c3)cc([C@H]3CC[C@H](O)CC3)n2n1 [Compound 581]
≤ 100	+++ (“+++” represents a ratio of >100)	1000 to 10000	–	COC[C@H](C)Nc1ncc2c(-c3cnn(C(C)(C)C(=O)N4CCOC(C(C)(C)O)C4)c3)cc([C@H]3CC[C@H](O)CC3)n2n1 (stereo partly drawn) [Compound 556]
≤ 100	–	100 to 1000	+++ (“+++” represents a ratio of >100)	COCC(C)Nc1ncc2c(-c3ccc(CN4CCCC4)cc3)cc(C3CCC(O)CC3)n2n1 (stereo not drawn) [Compound 142]
≤ 100	+++ (“+++” represents a ratio of >100)	1000 to 10000	–	COC[C@H](C)Nc1ncc2c(-c3ccnc([S@](C)(=N)=O)c3)cc([C@H]3CC[C@H](O)CC3)n2n1 [Compound 575]
≤ 100	+++ (“+++” represents a ratio of >100)	100 to 1000	–	C[C@@H](COC(F)F)Nc1ncc2c(-c3ccc(S(C)(=O)=O)nc3)cc([C@H]3CC[C@H](O)CC3)n2n1 [Compound 513]
≤ 100	+++ (“+++” represents a ratio of >100)	1000 to 10000	–	COC[C@H](C)Nc1ncc2c(-c3cnn(C(C)(C)C(=O)N4CC[C@@H](O)C4)c3)cc([C@H]3CC[C@H](O)CC3)n2n1 [Compound 555]
≤ 100	+++ (“+++” represents a ratio of >100)	1000 to 10000	–	COC[C@H](C)Nc1ncc2c([C@H]3CC[C@@H](C(=O)N4CCC(F)(F)CC4)CC3)cc([C@H]3CC[C@H](O)CC3)n2n1 [Compound 577]
≤ 100	–	1000 to 10000	+++ (“+++” represents a ratio of >100)	CC[C@H](C)Nc1ncc2c(C3CCN(c4nccc(C)n4)CC3)cc([C@H]3CC[C@H](O)CC3)n2n1 [Compound 136, (trans)-4-(2-((S)-sec-butylamino)-5-(1-(4-methylpyrimidin-2-yl)piperidin-4-yl)pyrrolo[2,1-f][1,2,4]triazin-7-yl)cyclohexanol]
≤ 100	+++ (“+++” represents a ratio of >100)	1000 to 10000	–	COC[C@H](C)Nc1ncc2c(-c3ccnc(C(F)(F)F)c3)cc([C@H]3CC[C@H](O)CC3)n2n1 [Compound 584]
≤ 100	+++ (“+++” represents a ratio of >100)	1000 to 10000	–	C[C@H](Nc1ncc2c(-c3cnn(C(C)(C)C(=O)N4CCOCC4)c3)cc([C@H]3CC[C@H](O)CC3)n2n1)C(F)(F)F [Compound 537]
≤ 100	+++ (“+++” represents a ratio of >100)	1000 to 10000	–	COC[C@H](C)Nc1ncc2c(-c3cnn(C(C)(C)C(=O)N4CCCC5(COC5)C4)c3)cc([C@H]3CC[C@H](O)CC3)n2n1 [Compound 516]
≤ 100	+++ (“+++” represents a ratio of >100)	1000 to 10000	–	COC[C@H](C)Nc1ncc2c(-c3cnn(C(C)(C)C(=O)N4C[C@@H](C)N[C@@H](C)C4)c3)cc([C@H]3CC[C@@H](O)CC3)n2n1 [Compound 591]
≤ 100	–	100 to 1000	+++ (“+++” represents a ratio of >100)	COC[C@H](C)Nc1ncc2c(-c3ccc(CN4CCOCC4)cc3)cc([C@H]3CC[C@H](O)CC3)n2n1 [Compound 140]
≤ 100	+++ (“+++” represents a ratio of >100)	100 to 1000	–	COC[C@H](C)Nc1ncc2c(-c3cnn(C(C)(C)C(=O)N4CCOCC4)c3)cc([C@H]3CC[C@@](C)(O)CC3)n2n1 [Compound 561]
≤ 100	+++ (“+++” represents a ratio of >100)	1000 to 10000	–	COC[C@H](C)Nc1ncc2c(-c3cnn(C(C)(C)C(=O)N4CCO[C@@H](C(C)(C)O)C4)c3)cc([C@H]3CC[C@H](O)CC3)n2n1 [Compound 585]
≤ 100	+++ (“+++” represents a ratio of >100)	1000 to 10000	–	CCN(C(=O)N1CCN(c2cc(-c3cc([C@H]4CC[C@H](O)CC4)n4nc(N[C@@H](C)COC)ncc34)ccn2)CC1)C(C)C [Compound 514]
≤ 100	+++ (“+++” represents a ratio of >100)	1000 to 10000	–	COC[C@H](C)Nc1ncc2c(-c3ccnc([S@@](C)(=N)=O)c3)cc([C@H]3CC[C@H](O)CC3)n2n1 [Compound 574]

Compound	IC50 (MERTK) [nM]	FLT3/Mer ratio (FLT3 IC50/Mer IC50) (MERTK; [1])	IC50 (FLT3) [nM]	FLT3/Mer ratio (FLT3 IC50/Mer IC50) (MERTK; [2])
COC[C@H](C)Nc1ncc2c(-c3cnn(C4COC4)c3)cc([C@@H]3CC[C@H](O)[C@@H](C)C3)n2n1 [Compound 588]	≤ 100	++ (“++” represents a ratio of between 10 and 100)	100 to 1000	–
CC(Nc1ncc2c(-c3cnn(C4COC4)c3)cc(C3CCC(O)CC3)n2n1)c1ccccn1 (stereo not drawn) [Compound 544]	100 to 1000	++ (“++” represents a ratio of between 10 and 100)	1000 to 10000	–
COC[C@H](C)Nc1ncc2c(-c3cnn(C4COC4)c3)cc([C@H]3CC[C@@H](O)CC3)n2n1 [Compound 564]	≤ 100	++ (“++” represents a ratio of between 10 and 100)	≤ 100	–
COC[C@H](C)Nc1ncc2c(-c3cnn(C4COC4)c3)cc(-c3cccc(O)c3)n2n1 [Compound 511]	≤ 100	++ (“++” represents a ratio of between 10 and 100)	100 to 1000	–
COCC(C)Nc1ncc2c(-c3ccc(C(C)N4CCOCC4)cc3)cc(C3CCC(O)CC3)n2n1 (stereo not drawn) [Compound 143]	≤ 100	–	≤ 100	++ (“++” represents a ratio of between 10 and 100)
